Experimental data taken from patent publication US10954219B2, “1,3-benzodioxole derivative” (DAIICHI SANKYO COMPANY, LIMITED, priority 2014, dated 2021).

Experiments:
NCI-H1563 = assay: Cell growth inhibitory activity evaluation, NCI-H1563; assay type: cell-based; conditions: Homo sapiens, NCI-H1563 (Lung cancer), read-out: Extent of cell growth inhibition
Experimental: (§1) Cell Growth Inhibitory Activity Evaluation
(§2) Cells were purchased from ATCC (G401 (human kidney-derived rhabdoid tumor), HepG2, LNCaP, LS180, MV4; 11, NCI-H1563, NCI-H1703, NCI-H520, NCI-H522, NCI-N87, RS4; 11, and THP-1), Deutsche Sammlung von Mikroorganismen und Zellkulturen GmbH (DSMZ) (KARPAS-422 (EZH2 Y641N mutant human diffuse large B-cell lymphoma) and KOPN8), and Health Science Research Resource Bank (OVMANA). […] Then, the luminescence intensity of each well was measured using a plate reader (EnVision, PerkinElmer, Inc.). The extent of cell growth inhibition was calculated from the luminescence intensity of a sample-supplemented group (Ts) and a DMSO-supplemented group (Cs) measured on the inoculation date and a sample-supplemented group (T) and a DMSO-supplemented group (C) measured on the effect determination date according to the following expression: Extent of cell growth inhibition (%)={1−(T−Ts)/(C−Cs)}×100
(§3) When the number of cells in the sample-supplemented group is decreased on the determination date compared with the inoculation date (T<Ts), a cytocidal effect was calculated according to the following expression: Cytocidal rate (%)=(T−Ts)/Ts×(−100)

[1] = tested on: G401 (human kidney-derived rhabdoid tumor); assay: Cell growth inhibitory activity evaluation, G401; assay type: cell-based
Experimental: as §1, §2, §3

MV4;11 = assay: Cell growth inhibitory activity evaluation, MV4;11; assay type: cell-based; conditions: MV4;11 (Leukemia)
Experimental: as §1, §2, §3

NCI-H520 = assay: Cell growth inhibitory activity evaluation, NCI-H520; assay type: cell-based; conditions: Homo sapiens, NCI-H520 (Lung cancer), read-out: Extent of cell growth inhibition
Experimental: as §1, §2, §3

NCI-H1703 = assay: Cell growth inhibitory activity evaluation, NCI-H1703; assay type: cell-based; conditions: NCI-H1703 (Lung cancer)
Experimental: as §1, §2, §3

NCI-N87 = assay: Cell growth inhibitory activity evaluation, NCI-N87; assay type: cell-based, human; conditions: NCI-N87 (Stomach cancer)
Experimental: as §1, §2, §3

LNCaP = assay: Cell growth inhibitory activity evaluation, LNCaP; assay type: cell-based; conditions: LNCaP (Prostate cancer)
Experimental: as §1, §2, §3

[2] = tested on: SNF5 deletion mutant human kidney-derived rhabdoid tumor G401-subcutaneously transplanted model; assay: Antitumor activity, G401-subcutaneously transplanted model; assay type: in vivo, female BALB/c-nu/nu mice; conditions: oral, QD × 12, 36 days after grouping
Excerpt: Evaluation of Antitumor Activity Against SNF5 Deletion Mutant Human Kidney-Derived Rhabdoid Tumor G401-Subcutaneously Transplanted Model
(§4) SNF5 deletion mutant human kidney-derived rhabdoid tumor G401 cells were subcutaneously transplanted in an amount of 1×10^7 cells/head to the right abdomens of female BALB/c-nu/nu mice. After 23 days, the mice were grouped on the basis of their presumed tumor volumes and body weights. The G401 cells were purchased from ATCC. […] The tumor volume of each individual was measured from the grouping date to 36 days thereafter (test completion date).

[3] = tested on: KARPAS-422 (EZH2 Y641N mutant human diffuse large B-cell lymphoma); assay: Cell growth inhibitory activity evaluation, KARPAS-422; assay type: cell-based; conditions: KARPAS-422 (Lymphoma)
Experimental: as §1, §2, §3

[4] = tested on: EZH2 Y641N mutant human diffuse large B-cell lymphoma KARPAS-422-subcutaneously transplanted model; assay: Antitumor activity, KARPAS-422-subcutaneously transplanted model; assay type: in vivo, female SCID mice; conditions: oral, QD × 14, 45 days after grouping
Excerpt: Evaluation of Antitumor Activity Against EZH2 Y641N Mutant Human Diffuse Large B-Cell Lymphoma KARPAS-422-Subcutaneously Transplanted Model
EZH2 Y641N mutant human diffuse large B-cell lymphoma KARPAS-422 cells were subcutaneously transplanted in an amount of 2×10^7 cells/head to the right abdomens of female SCID mice. After 30 days, the mice were grouped on the basis of their presumed tumor volumes (major axis×minor axis×minor axis/2) and body weights. The KARPAS-422 cells were purchased from DSMZ. […] The tumor volume of each individual was measured from the grouping date to 45 days thereafter (test completion date).

THP-1 = assay: Cell growth inhibitory activity evaluation, THP-1; assay type: cell-based; conditions: THP-1 (Leukemia)
Experimental: as §1, §2, §3

OVMANA = assay: Cell growth inhibitory activity evaluation, OVMANA; assay type: cell-based; conditions: OVMANA (Ovarian cancer), read-out: Extent of cell growth inhibition
Experimental: as §1, §2, §3

KOPN8 = assay: Cell growth inhibitory activity evaluation, KOPN8; assay type: cell-based
Experimental: as §1, §2, §3

NCI-H522 = assay: Cell growth inhibitory activity evaluation, NCI-H522; assay type: cell-based; conditions: NCI-H522 (Lung cancer)
Experimental: as §1, §2, §3

RS4;11 = assay: Cell growth inhibitory activity evaluation, RS4;11; assay type: cell-based; conditions: RS4;11 (Leukemia)
Experimental: as §1, §2, §3

LS180 = assay: Cell growth inhibitory activity evaluation, LS180; assay type: cell-based, human; conditions: LS180 (Colorectal cancer)
Experimental: as §1, §2, §3

HepG2 = assay: Cell growth inhibitory activity evaluation, HepG2; assay type: cell-based; conditions: Homo sapiens, HepG2 (Liver cancer), read-out: Extent of cell growth inhibition
Experimental: as §1, §2, §3

[5] = tested on: human stomach cancer NCI-N87-subcutaneously transplanted model; assay: Antitumor activity, NCI-N87-subcutaneously transplanted model; assay type: in vivo, female BALB/c-nu/nu mice; conditions: oral, QD × 28, 82 days after grouping
Experimental: Evaluation of Antitumor Activity Against Human Stomach Cancer NCI-N87-Subcutaneously Transplanted Model
as §4, with “Human stomach cancer NCI-N87” for “SNF5 deletion mutant human kidney-derived rhabdoid tumor G401”, “8×10^6” for “1×10^7”, “12” for “23”, “NCI-N87” for “G401”, “82” for “36”

[6] = tested on: human colorectal cancer LS180-subcutaneously transplanted model; assay: Antitumor activity, LS180-subcutaneously transplanted model; assay type: in vivo, female SCID mice; conditions: oral, BID × 13, 17 days after grouping
Experimental: Evaluation of Antitumor Activity Against Human Colorectal Cancer LS180-Subcutaneously Transplanted Model
as §4, with “Human colorectal cancer LS180” for “SNF5 deletion mutant human kidney-derived rhabdoid tumor G401”, “5×10^6” for “1×10^7”, “SCID” for “BALB/c-nu/nu”, “3” for “23”, “LS180” for “G401”, “17” for “36”

[7] = Homo sapiens, read-out: Extent of cell growth inhibition

## Cc1cc(C)c(CNC(=O)c2cc(Br)c3c(c2C)OC(C)([C@H]2CC[C@H](N(C)C)CC2)O3)c(=O)[nH]1 (relative stereo) [Example 14, 7-Bromo-2-[trans-4-(dimethylamino)cyclohexyl]-N-[(4,6-dimethyl-2-oxo-1,2-dihydropyridin-3-yl)methyl]-2,4-dimethyl-1,3-benzodioxole-5-carboxamide]
NCI-H1563
  inhibition at 1 µM: 56%
[1]; 1 uM
  Cytocidal rate: 100%
[1]; Homo sapiens, G-401, read-out: Extent of cell growth inhibition
  inhibition at 1 µM: > 100%
MV4;11; [7]
  inhibition at 1 µM: > 100%
MV4;11; 1 uM
  Cytocidal rate: 88%
NCI-H520
  inhibition at 1 µM: 80%
NCI-H1703; [7]
  inhibition at 1 µM: > 100%
NCI-H1703; 1 uM
  Cytocidal rate: 49%
NCI-N87; [7]
  inhibition at 1 µM: > 100%
NCI-N87; 1 uM
  Cytocidal rate: 15%
LNCaP; [7]
  inhibition at 1 µM: > 100%
LNCaP; 1 uM
  Cytocidal rate: 6%
[2]; G401, 50 mg/kg
  Extent of tumor growth inhibition: >100%
  Extent of tumor regression: 19%
[2]; G401, 200 mg/kg
  Extent of tumor growth inhibition: >100%
  Extent of tumor regression: 29%
[3]; [7]
  inhibition at 1 µM: > 100%
[3]; 1 uM
  Cytocidal rate: 100%
[4]; KARPAS-422, 5 mg/kg
  Extent of tumor growth inhibition: 26%
[4]; KARPAS-422, 25 mg/kg
  Extent of tumor growth inhibition: 80%
[4]; KARPAS-422, 200 mg/kg
  Extent of tumor growth inhibition: >100%
  Extent of tumor regression: 50%
THP-1; [7]
  inhibition at 1 µM: > 100%
THP-1; 1 uM
  Cytocidal rate: 7%
OVMANA
  inhibition at 1 µM: 95%
KOPN8; Homo sapiens, KOPN-8, KOPN8 (Leukemia), read-out: Extent of cell growth inhibition
  inhibition at 1 µM: > 100%
KOPN8; KOPN8 (Leukemia), 1 uM
  Cytocidal rate: 99%
NCI-H522; [7]
  inhibition at 1 µM: > 100%
NCI-H522; 1 uM
  Cytocidal rate: 13%
RS4;11; [7]
  inhibition at 1 µM: > 100%
RS4;11; 1 uM
  Cytocidal rate: 94%
LS180; [7]
  inhibition at 1 µM: > 100%
LS180; 1 uM
  Cytocidal rate: 6%
HepG2
  inhibition at 1 µM: 78%

## Cc1cc(C)c(CNC(=O)c2cc(Cl)c3c(c2C)OC(C)([C@H]2CC[C@H](N(C)C)CC2)O3)c(=O)[nH]1 (relative stereo) [Example 34, 7-Chloro-2-[trans-4-(dimethylamino)cyclohexyl]-N-[(4,6-dimethyl-2-oxo-1,2-dihydropyridin-3-yl)methyl]-2,4-dimethyl-1,3-benzodioxole-5-carboxamide]
[2]; G401, 50 mg/kg
  Extent of tumor growth inhibition: >100%
  Extent of tumor regression: 22%
[2]; G401, 200 mg/kg
  Extent of tumor growth inhibition: >100%
  Extent of tumor regression: 17%
[4]; KARPAS-422, 5 mg/kg
  Extent of tumor growth inhibition: 44%
[4]; KARPAS-422, 25 mg/kg
  Extent of tumor growth inhibition: 76%
[4]; KARPAS-422, 200 mg/kg
  Extent of tumor growth inhibition: >100%
  Extent of tumor regression: 52%
[5]; NCI-N87, 50 mg/kg
  Extent of tumor growth inhibition: 80%
[5]; NCI-N87, 200 mg/kg
  Extent of tumor growth inhibition: 87%
[6]; LS180, 50 mg/kg
  Extent of tumor growth inhibition: 8%
[6]; LS180, 200 mg/kg
  Extent of tumor growth inhibition: 73%
